According to patent US9464076B2, “Benzothiophene derivative” (Daiichi Sankyo Company, Limited, priority 2013, dated 2016):
Counter-ions that a name gives are not always drawn.

Each compound was assayed against PDE10A (Homo sapiens (Human), UniProt Q9Y233) (assay: Measurement of PDE10A inhibitory activity-2 (PDE10A fraction prepared from MOLT-4 cells)). Settings: PDE10A fraction from MOLT-4 cells (peak around 250 mM NaCl).
PDE10A, sequence (Q9Y233 whole entry): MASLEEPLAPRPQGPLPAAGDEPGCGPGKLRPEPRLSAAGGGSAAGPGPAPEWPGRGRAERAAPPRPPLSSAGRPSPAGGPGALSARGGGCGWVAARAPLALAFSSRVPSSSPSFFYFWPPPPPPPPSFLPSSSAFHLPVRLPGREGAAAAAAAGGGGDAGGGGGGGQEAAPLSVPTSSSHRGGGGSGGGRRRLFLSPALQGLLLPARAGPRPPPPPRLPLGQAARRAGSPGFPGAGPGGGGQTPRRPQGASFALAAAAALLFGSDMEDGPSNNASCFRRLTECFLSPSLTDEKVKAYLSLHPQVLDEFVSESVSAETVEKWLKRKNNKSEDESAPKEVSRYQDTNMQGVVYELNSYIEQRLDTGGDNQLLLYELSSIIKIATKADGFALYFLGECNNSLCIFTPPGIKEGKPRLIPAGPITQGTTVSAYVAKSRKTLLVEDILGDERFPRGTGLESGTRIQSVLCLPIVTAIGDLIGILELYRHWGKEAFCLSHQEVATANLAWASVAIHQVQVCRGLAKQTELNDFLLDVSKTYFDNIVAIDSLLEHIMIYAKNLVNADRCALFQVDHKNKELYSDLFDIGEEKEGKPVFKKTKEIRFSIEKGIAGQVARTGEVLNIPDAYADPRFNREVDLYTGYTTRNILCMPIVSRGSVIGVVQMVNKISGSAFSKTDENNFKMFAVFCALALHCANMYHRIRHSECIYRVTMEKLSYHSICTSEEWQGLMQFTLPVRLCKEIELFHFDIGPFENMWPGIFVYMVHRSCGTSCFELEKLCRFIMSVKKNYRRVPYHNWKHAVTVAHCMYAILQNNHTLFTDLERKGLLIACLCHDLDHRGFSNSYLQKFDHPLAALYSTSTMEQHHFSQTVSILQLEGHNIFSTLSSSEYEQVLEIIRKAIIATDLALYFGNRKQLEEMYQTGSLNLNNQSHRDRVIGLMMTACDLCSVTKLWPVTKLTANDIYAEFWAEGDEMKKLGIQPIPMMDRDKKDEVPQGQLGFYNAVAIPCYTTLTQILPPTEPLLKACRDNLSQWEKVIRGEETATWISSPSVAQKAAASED
Assay type: biochemical
Procedure: A human acute lymphoblastic lymphoma T cell line MOLT-4 (which can be purchased under ATCC No. CRL-1582 from ATCC) was cultured in an RPMI1640 medium containing 10% fetal bovine serum to obtain 5×10^8 MOLT-4 cells. The cells were recovered by centrifugation and suspended in 10 ml of buffer solution A (25 mM Tris-HCl, 5 mM 2-mercaptoethanol, 2 mM benzamidine, 2 mM EDTA, and 0.1 mM 4-(2-aminoethyl)benzenesulfonyl hydrochloride, pH 7.5). The cells were homogenized using a Polytron homogenizer and centrifuged (4° C., 25,000 g, 10 minutes). Then, the supernatant was further ultracentrifuged (4° C., 100,000 g, 60 minutes). The obtained supernatant was filtered through a 0.2 μm filter to obtain a soluble fraction.
HiTrap Q HP column (5 ml×2, GE Healthcare Japan Corp.) equilibrated with buffer solution A was charged with the obtained soluble fraction. Phosphodiesterase was eluted with 300 ml of buffer solution A containing a linear gradient solution of 0 to 0.8 M NaCl to recover sixty 5-ml fractions. Each fraction was tested for cAMP-metabolizing phosphodiesterase activity.
On the other hand, total RNA was prepared from Jurkat cells, one type of human T cell, and similarly subjected to RT-PCR. […] Eur J Biochem. 1999, 266 (3), 1118-2 has reported that PDE10A from the rat striatum and testis is eluted as an active peak centered around 250 mM NaCl.
For these reasons, this fraction was used as a solution for the evaluation of PDE10A inhibitory activity. The obtained solution was used to calculate the inhibitory activity (IC50) of a test compound in the same way as in the aforementioned test.
`CCC(CC)C(=O)c1cccc2c(C)c(C(=O)Nc3cc(C(C)(C)O)c4ccccc4n3)sc12` [Example 24, 7-(2-Ethylbutanoyl)-N-(4-(2-hydroxypropan-2-yl)quinolin-2-yl)-3-methylbenzo[b]thiophene-2-carboxamide] was tested, and the IC50 was 25 nM.
For `COCc1ccc(C(C)=O)c2sc(C(=O)Nc3ccc4c(C(C)(C)O)cccc4n3)c(C)c12` [Example 74, 7-Acetyl-N-(5-(2-hydroxypropan-2-yl)quinolin-2-yl)-4-(methoxymethyl)-3-methylbenzo[b]thiophene-2-carboxamide], the IC50 was 3 nM.
`CC(=O)c1ccc(C(C)=O)c2c(C)c(C(=O)Nc3cc(CN(C)C(C)=O)c4ccccc4n3)sc12` [Example 15, 4,7-Diacetyl-3-methyl-N-(4-((N-methylacetamido)methyl)quinolin-2-yl)benzo[b]thiophene-2-carboxamide] was tested, and the IC50 was 2.3 nM.
`COCc1ccc(C(C)=O)c2sc(C(=O)Nc3ccc4c(C(=O)N5CCC5)cccc4n3)c(C)c12` [Example 98, 7-Acetyl-N-(5-((azetidin-1-yl)carbonyl)quinolin-2-yl)-4-(methoxymethyl)-3-methylbenzo[b]thiophene-2-carboxamide] gave an IC50 of 0.21 nM.
For `CC(=O)c1ccc(C(C)=O)c2c(C)c(C(=O)Nc3cc(C(C)O)c4ccccc4n3)sc12` (stereo not drawn) [Example 13, 4,7-Diacetyl-N-(4-(1-hydroxyethyl)quinolin-2-yl)-3-methylbenzo[b]thiophene-2-carboxamide], the IC50 was 2 nM.
Work on `CCC(=O)c1ccc(C(C)=O)c2sc(C(=O)Nc3cc(C(C)(C)O)c4ccccc4n3)c(C)c12` [Example 10, 7-Acetyl-N-(4-(2-hydroxypropan-2-yl)quinolin-2-yl)-3-methyl-4-propionylbenzo[b]thiophene-2-carboxamide] yielded an IC50 of 20 nM.
Work on `COCc1ccc(C(C)=O)c2sc(C(=O)Nc3cc(C(=O)N4CC[C@@H](O)C4)c4ccccc4n3)c(C)c12` [Example 50, (R)-7-Acetyl-N-(4-((3-hydroxypyrrolidin-1-yl)carbonyl)quinolin-2-yl)-4-(methoxymethyl)-3-methylbenzo[b]thiophene-2-carboxamide] yielded an IC50 of 2.6 nM.
`COCc1ccc(C(C)=O)c2sc(C(=O)Nc3cc(CN4CCC(F)(F)C4)c4ccccc4n3)c(C)c12` [Example 48, 7-Acetyl-N-(4-((3,3-difluoropyrrolidin-1-yl)methyl)quinolin-2-yl)-4-(methoxymethyl)-3-methylbenzo[b]thiophene-2-carboxamide] was tested, and the IC50 was 0.85 nM.
In the case of `Cc1c(C(=O)Nc2cc(C(C)(C)O)c3ccccc3n2)sc2c(C(=O)C(C)(C)C)cccc12` [Example 22, N-(4-(2-Hydroxypropan-2-yl)quinolin-2-yl)-3-methyl-7-pivaloylbenzo[b]thiophene-2-carboxamide], the IC50 is reported as 1 nM.
In the case of `[2H]C([2H])([2H])OC1CN(C(=O)c2cccc3nc(NC(=O)c4sc5c(C(C)=O)ccc(COC)c5c4C)ccc23)C1` [Example 122, 7-Acetyl-N-(5-((3-(^2H3)methoxyazetidin-1-yl)carbonyl)quinolin-2-yl)-4-(methoxymethyl)-3-methylbenzo[b]thiophene-2-carboxamide], the IC50 is reported as 0.29 nM.
Work on `COCc1ccc(C(C)=O)c2sc(C(=O)Nc3cc(CN4CCNCC4)c4ccccc4n3)c(C)c12` [Example 124, 7-Acetyl-4-(methoxymethyl)-3-methyl-N-(4-(piperazin-1-ylmethyl)quinolin-2-yl)benzo[b]thiophene-2-carboxamide] yielded an IC50 of 2.9 nM.
In the case of `COCc1ccc(C(C)=O)c2sc(C(=O)Nc3cc(CN4CCCC4)c4ccccc4n3)c(C)c12` [Example 43, 7-Acetyl-4-(methoxymethyl)-3-methyl-N-(4-(pyrrolidin-1-ylmethyl)quinolin-2-yl)benzo[b]thiophene-2-carboxamide], the IC50 is reported as 6.2 nM.
`COCc1ccc(C(C)=O)c2sc(C(=O)Nc3ccc4c(C(=O)N5CCOCC5)cccc4n3)c(C)c12` [Example 95, 7-Acetyl-4-(methoxymethyl)-3-methyl-N-(5-((morpholin-4-yl)carbonyl)quinolin-2-yl)benzo[b]thiophene-2-carboxamide] was tested, and the IC50 was 0.48 nM.
With `COCc1ccc(C(C)=O)c2sc(C(=O)Nc3ccc4c(C(=O)N5CC(F)C5)cccc4n3)c(C)c12` [Example 99, 7-Acetyl-N-(5-((3-fluoroazetidin-1-yl)carbonyl)quinolin-2-yl)-4-(methoxymethyl)-3-methylbenzo[b]thiophene-2-carboxamide] the IC50 was 0.11 nM.
For `CCOCc1cccc2nc(NC(=O)c3sc4c(C(C)=O)ccc(COC)c4c3C)ccc12` [Example 70, 7-Acetyl-N-(5-(ethoxymethyl)quinolin-2-yl)-4-(methoxymethyl)-3-methylbenzo[b]thiophene-2-carboxamide], the IC50 was 1.6 nM.
Work on `CCc1c(C(=O)Nc2cc(C(C)(C)O)c3ccccc3n2)sc2c(C(C)=O)ccc(C(C)=O)c12` [Example 7, 4,7-Diacetyl-3-ethyl-N-(4-(2-hydroxypropan-2-yl)quinolin-2-yl)benzo[b]thiophene-2-carboxamide] yielded an IC50 of 5 nM.
`CC(=O)c1ccc(CO)c2c(C)c(C(=O)Nc3ccc4c(CO)cccc4n3)sc12` [Example 114, 7-Acetyl-4-(hydroxymethyl)-N-(5-(hydroxymethyl)quinolin-2-yl)-3-methylbenzo[b]thiophene-2-carboxamide] was tested, and the IC50 was 2.1 nM.
With `CCCC(=O)c1cccc2c(C)c(C(=O)Nc3cc(C(C)(C)O)c4ccccc4n3)sc12` [Example 17, 7-Butyryl-N-(4-(2-hydroxypropan-2-yl)quinolin-2-yl)-3-methylbenzo[b]thiophene-2-carboxamide] the IC50 was 2.6 nM.
`COCc1ccc(C(C)=O)c2sc(C(=O)Nc3ccc4c(COC(F)F)cccc4n3)c(C)c12` [Example 73, 7-Acetyl-N-(5-((difluoromethoxy)methyl)quinolin-2-yl)-4-(methoxymethyl)-3-methylbenzo[b]thiophene-2-carboxamide hydrochloride] gave an IC50 of 2 nM.
Compound `CC(=O)c1ccc(C(C)=O)c2c(C)c(C(=O)Nc3cc(CN4CCC(O)C4)c4ccccc4n3)sc12` (stereo not drawn) [Example 51, 4,7-Diacetyl-N-(4-((3-hydroxypyrrolidin-1-yl)methyl)quinolin-2-yl)-3-methylbenzo[b]thiophene-2-carboxamide] has an IC50 of 1.5 nM.
With `COCc1ccc(C(C)=O)c2sc(C(=O)Nc3ccc4c(C(=O)OC)cccc4n3)c(C)c12` [Example 92, Methyl 2-(7-acetyl-4-(methoxymethyl)-3-methylbenzo[b]thiophene-2-carboxamido)quinoline-5-carboxylate] the IC50 was 12 nM.
In the case of `COCc1ccc(C(C)=O)c2sc(C(=O)Nc3ccc4c(C(=O)N5CC(F)(F)C5)cccc4n3)c(C)c12` [Example 100, 7-Acetyl-N-(5-((3,3-difluoroazetidin-1-yl)carbonyl)quinolin-2-yl)-4-(methoxymethyl)-3-methylbenzo[b]thiophene-2-carboxamide], the IC50 is reported as 0.42 nM.
`COC(C)c1ccc(C(C)=O)c2sc(C(=O)Nc3cc(C(C)(C)O)c4ccccc4n3)c(C)c12` (stereo not drawn) [Example 32, 7-Acetyl-N-(4-(2-hydroxypropan-2-yl)quinolin-2-yl)-4-(1-methoxyethyl)-3-methylbenzo[b]thiophene-2-carboxamide] gave an IC50 of 9.1 nM.
For `COCc1ccc(C(C)=O)c2sc(C(=O)Nc3ccc4c(C)cccc4n3)c(C)c12` [Example 108, 7-Acetyl-4-(methoxymethyl)-3-methyl-N-(5-methylquinolin-2-yl)benzo[b]thiophene-2-carboxamide], the IC50 was 1.6 nM.
Work on `CCC(=O)c1cccc2c(C)c(C(=O)Nc3cc(C(C)(C)O)c4ccccc4n3)sc12` [Example 16, N-(4-(2-Hydroxypropan-2-yl)quinolin-2-yl)-3-methyl-7-propionylbenzo[b]thiophene-2-carboxamide] yielded an IC50 of 4.8 nM.
In the case of `COCc1ccc(C(C)=O)c2sc(C(=O)Nc3cc(C(C)O)c4ccccc4n3)c(C)c12` (stereo not drawn) [Example 33, 7-Acetyl-N-(4-(1-hydroxyethyl)quinolin-2-yl)-4-(methoxymethyl)-3-methylbenzo[b]thiophene-2-carboxamide hydrochloride], the IC50 is reported as 0.9 nM.
`Cc1c(C(=O)Nc2cc(C(C)(C)O)c3ccccc3n2)sc2c(C(=O)CC(C)C)cccc12` [Example 23, N-(4-(2-Hydroxypropan-2-yl)quinolin-2-yl)-3-methyl-7-(3-methylbutanoyl)benzo[b]thiophene-2-carboxamide] showed an IC50 of 10 nM.
With `CCCOCc1ccc(C(C)=O)c2sc(C(=O)Nc3cc(C(C)(C)O)c4ccccc4n3)c(C)c12` [Example 30, 7-Acetyl-N-(4-(2-hydroxypropan-2-yl)quinolin-2-yl)-3-methyl-4-(propoxymethyl)benzo[b]thiophene-2-carboxamide] the IC50 was 11 nM.
With `COCc1ccc(C(C)=O)c2sc(C(=O)Nc3ccc4c(COC(=O)CCC(=O)O)cccc4n3)c(C)c12` [Example 89, 4-((2-(7-Acetyl-4-(methoxymethyl)-3-methylbenzo[b]thiophene-2-carboxamido)quinolin-5-yl)methoxy)-4-oxobutanoic acid] the IC50 was 0.37 nM.
Work on `Cc1c(C(=O)Nc2cc(C(C)(C)O)c3ccccc3n2)sc2c(C(=O)C3CCC3)cccc12` [Example 21, 7-(Cyclobutylcarbonyl)-N-(4-(2-hydroxypropan-2-yl)quinolin-2-yl)-3-methylbenzo[b]thiophene-2-carboxamide] yielded an IC50 of 0.67 nM.
